ChEMBL document CHEMBL1145280, “Control of hepatitis C: a medicinal chemistry perspective” (J Med Chem, 2005)
Non-standard residues stand in square brackets, D forms with d. Residues, ends and D or L forms follow the SMILES beside them. *: point of attachment. Dip = N[C@H](C(=O)O)C(c1ccccc1)c1ccccc1; Hyp = O=C(O)[C@@H]1C[C@@H](O)CN1; Tic = O=C(O)[C@@H]1Cc2ccccc2CN1; X1 = O=C(O)C(=O)[C@H](CC(F)F)N*; Cha = N[C@@H](CC1CCCCC1)C(=O)O; Nle = CCCC[C@H](N)C(=O)O; Bn = c1ccc(C*)cc1

system: Internal ribosome entry site (IRES); test: Inhibitory concentration against hepatitis C virus internal ribosomal entry site; assay type: nucleic-acid assay, Hepacivirus hominis; settings: not given

| Molecule | IC50 [nM] |
| --- | --- |
| Nc1ccc2c(c1)Oc1ncc(N)cc1C(=O)N2 | > 10000 |
| Cc1cc2nc3ccc(N(C)C)cc3nc2cc1N | 20 |
| CCN(CC)c1ccc2[o+]c3cc(C)c(N)cc3nc2c1 | 1000 |
| CN(C)c1ccc(C(=O)c2ccc(N(C)C)cc2)cc1 [MICHLER'S KETONE] | > 10000 |
| CN(C)c1ccc(Nc2ccc(N(C)C)cc2)cc1 | 2190 |
| Nc1ccc2[nH]c3ccc(N)cc3c2c1 | > 10000 |
| Nc1ccc(Nc2ccc(N)cc2)cc1 | > 10000 |
| Nc1ccc2nc3ccc(N)cc3[s+]c2c1 [THIONIN ACETATE] | 2860 |
| Nc1ccc2c(c1)NC(=O)c1cc(N)cnc1O2 | > 10000 |
| CN(C)c1ccc2c(c1)Sc1cc(N(C)C)ccc1N2C(=O)c1ccccc1 | > 10000 |

target: T1, NS3 (Hepatitis C virus, UniProt A3EZJ3); test: Inhibitory constant against hepatitis C virus NS3 protease; parameters: species or system Hepacivirus hominis; settings: not given
T1 sequence (A3EZJ3 whole entry): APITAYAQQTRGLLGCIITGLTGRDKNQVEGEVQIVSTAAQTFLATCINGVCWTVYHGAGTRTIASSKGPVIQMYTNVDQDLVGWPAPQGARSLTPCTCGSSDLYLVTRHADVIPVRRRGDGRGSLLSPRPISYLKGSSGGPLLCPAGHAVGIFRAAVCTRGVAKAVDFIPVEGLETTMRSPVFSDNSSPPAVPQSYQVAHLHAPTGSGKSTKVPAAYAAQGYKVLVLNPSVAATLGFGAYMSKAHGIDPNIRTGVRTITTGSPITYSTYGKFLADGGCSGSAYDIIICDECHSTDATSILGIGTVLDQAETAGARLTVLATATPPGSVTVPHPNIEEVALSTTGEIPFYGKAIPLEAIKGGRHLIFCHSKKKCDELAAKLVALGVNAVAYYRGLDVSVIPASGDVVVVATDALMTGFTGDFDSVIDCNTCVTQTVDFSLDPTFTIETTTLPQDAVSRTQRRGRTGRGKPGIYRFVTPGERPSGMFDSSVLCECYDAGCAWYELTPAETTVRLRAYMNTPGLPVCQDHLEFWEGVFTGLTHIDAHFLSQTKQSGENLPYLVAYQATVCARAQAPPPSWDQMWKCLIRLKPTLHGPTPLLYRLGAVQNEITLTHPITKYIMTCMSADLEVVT

| Molecule | Ki [nM] |
| --- | --- |
| CC(=O)N[C@@H](CC(=O)O)C(=O)N[C@@H](CCC(=O)O)C(=O)N[C@H](C(=O)N[C@@H](CCC(=O)O)C(=O)N[C@@H](CC1CCCCC1)C(=O)N[C@@H](CC(F)F)C(=O)C(=O)O)C(c1ccccc1)c1ccccc1 (Ac-DE[Dip]E[Cha]-X1) | 10 |
| CC(C)COC(=O)N[C@@H](CCC(=O)O)C(=O)N[C@@H](CC(C)C)C(=O)N[C@@H](CC(F)F)C(=O)NCCc1ccc(C(=O)O)cc1Cl | 600 |
| O=C(O)[C@H](Cc1ccccc1)N(Cc1cccc(C(F)(F)F)c1)C(=O)c1ccc(Cl)cc1Cl | 2200 |
| CC(=O)N[C@@H](CC(=O)O)C(=O)N[C@@H](CCC(=O)O)C(=O)N[C@H](C(=O)N[C@@H](CCC(=O)O)C(=O)N[C@@H](CC1CCCCC1)C(=O)N[C@@H](CS)C(=O)O)C(c1ccccc1)c1ccccc1 (Ac-DE[Dip]E[Cha]C-OH) | 40 |
| Ac-DEMEEC-OH | 600 |
| O=C(O)[C@H](Cc1ccccc1)N(Cc1ccc(-c2cc3ccccc3o2)s1)C(=O)c1ccc(Cl)cc1Cl | 2200 |

target: T1, NS3; test: Inhibitory concentration against hepatitis C virus NS3 protease; parameters: species or system Hepacivirus hominis; settings: not given

| Molecule | IC50 [µg/mL] |
| --- | --- |
| CC(=O)OCCC/C(=C1/SC(=S)N(CC(=O)O)C1=O)c1ccc(Br)cc1 | 6.4 |

same assay, conditions: read-out: IC50

| Molecule | IC50 [nM] |
| --- | --- |
| CCCC[C@H](NC(=O)[C@@H]1CCCN1C(=O)[C@H](CS)NC(=O)[C@H](CC1CCCCC1)NC(=O)[C@@H](NC(=O)[C@@H](NC(=O)[C@H](CCC(=O)O)NC(=O)[C@H](CC(=O)O)NC(C)=O)C(c1ccccc1)c1ccccc1)[C@@H](C)CC)C(=O)N[C@@H](CC(=O)O)C(=O)N[C@H](C(N)=O)C(C)C (Ac-DE[Dip]I[Cha]CP[Nle]DV-NH2) | 1800 |
| CC[C@H](C)[C@H](NC(=O)OCc1ccccc1)C(=O)N[C@@H](CC(C)C)C(=O)N[C@@H](CC(F)F)C(=O)C(=O)O | 1700 |
| CCCC[C@H](NC(=O)[C@@H]1Cc2ccccc2CN1C(=O)[C@H](CS)NC(=O)[C@H](CC(C)C)NC(=O)[C@@H](NC(=O)[C@@H](NC(=O)[C@H](CCC(=O)O)NC(=O)[C@H](CCC(=O)O)NC(C)=O)C(C)C)C(C)C)C(=O)N[C@@H](CO)C(=O)N[C@@H](Cc1ccc(O)cc1)C(N)=O (Ac-EEVVLC[Tic][Nle]SY-NH2) | 1000 |
| CC[C@H](C)[C@H](NC(=O)OC(C)(C)C)C(=O)N[C@@H](CC(C)C)C(=O)N[C@@H](CC(F)F)C(=O)C(=O)O | 1000 |
| CC(=O)OC1OCC=C2OC(=O)C=C21 (stereo unspecified) | 7200 |
| CC[C@H](C)[C@H](NC(=O)[C@@H](NC(=O)[C@H](CCC(=O)O)NC(=O)[C@H](CC(=O)O)NC(C)=O)C(c1ccccc1)c1ccccc1)C(=O)N[C@@H](CC1CCCCC1)C(=O)N[C@@H](CS)C(=O)N1CCC[C@H]1C(=O)N[C@@H](CC1CCCCC1)C(=O)N[C@@H](CC(=O)O)C(=O)N[C@H](C(N)=O)C(C)C (Ac-DE[Dip]I[Cha]CP[Cha]DV-NH2) | 1300 |
| CC(C)C[C@H](NC(=O)[C@H](CC(=O)O)NC(=O)[C@H](CC1CCCCC1)NC(=O)[C@@H]1CCCC[C@H]1C(=O)O)C(N)=O | 15000 |
| O=C1C=C2C(=CCOC2OC(=O)c2cccc(Br)c2)O1 (stereo unspecified) | 12600 |
| O=C(Nc1cc(Cl)ccc1Oc1ccc2ccccc2c1Cl)c1cc(Cl)cc(Br)c1O | 6200 |
| CC(=O)N[C@@H](CC(=O)O)C(=O)N[C@@H](CCC(=O)O)C(=O)N[C@@H](CC1CCCCC1)C(=O)N[C@H](C(=O)N1C[C@H](OCc2ccccc2)C[C@H]1C(=O)N[C@@H](CS)C(=O)O)C(C)C (Ac-DE[Cha]V[Hyp](Bn)C-OH) | 33 |
| CCCCCCCCCCCCCNC(=O)c1c(O)cc(O)c([N+](=O)[O-])c1O | 5800 |
| O=C(Nc1ccc(Oc2ccc(Cl)c3ccccc23)c(Cl)c1)c1cc(Cl)ccc1NS(=O)(=O)c1ccc(Cl)cc1 | 6500 |
| C=C[C@H]1C[C@]1(NC(=O)[C@@H]1C[C@@H](Oc2cc(-c3ccccc3)nc3ccccc23)CN1C(=O)[C@@H](NC(=O)[C@@H](NC(C)=O)C1CCCCC1)C(C)C)C(=O)O | 13 |
| CCCC[C@H](NC(=O)[C@@H]1Cc2ccccc2CN1C(=O)[C@H](CS)NC(=O)[C@H](CC1CCCCC1)NC(=O)[C@@H](NC(=O)[C@@H](NC(=O)[C@H](CCC(=O)O)NC(=O)[C@H](CC(=O)O)NC(C)=O)C(c1ccccc1)c1ccccc1)[C@@H](C)CC)C(=O)N[C@@H](CO)C(=O)N[C@@H](Cc1ccc(O)cc1)C(N)=O (Ac-DE[Dip]I[Cha]C[Tic][Nle]SY-NH2) | 100 |
| CC(=O)N[C@@H](CC(=O)O)C(=O)N[C@@H](CCC(=O)O)C(=O)N[C@@H](CC1CCCCC1)C(=O)N[C@H](C(=O)N1C[C@@H](OCc2ccccc2)C[C@H]1C(=O)NC1(C(=O)O)CC1)C(C)C | 51 |
| COc1ccc2c(O[C@@H]3C[C@H]4C(=O)N[C@]5(C(=O)O)C[C@H]5/C=C\CCCCC[C@H](NC(=O)OC5CCCC5)C(=O)N4C3)cc(-c3csc(NC(C)C)n3)nc2c1 [CILUPREVIR] | 3000 |
| Ac-DDIVPC-OH | 71000 |
| O=C1C=C2C(=CCOC2O)O1 (stereo unspecified) [PATULIN] | 3800 |
| O=C1NC(=S)S/C1=C/c1cc([N+](=O)[O-])ccc1Sc1ccc(Cl)cc1 | 3200 |
| CCCC(=O)c1cc2c(c(O)c1C)C(=O)C(=O)c1c(O)cccc1-2 | 7000 |

target: Genome polyprotein (Hepatitis C virus genotype 1a (isolate 1) (HCV), UniProt P26664); test: Inhibitory concentration against hepatitis C virus polymerase; parameters: species or system Hepacivirus hominis; settings: not given
Sequence (P26664 2421-3011 limits assumed): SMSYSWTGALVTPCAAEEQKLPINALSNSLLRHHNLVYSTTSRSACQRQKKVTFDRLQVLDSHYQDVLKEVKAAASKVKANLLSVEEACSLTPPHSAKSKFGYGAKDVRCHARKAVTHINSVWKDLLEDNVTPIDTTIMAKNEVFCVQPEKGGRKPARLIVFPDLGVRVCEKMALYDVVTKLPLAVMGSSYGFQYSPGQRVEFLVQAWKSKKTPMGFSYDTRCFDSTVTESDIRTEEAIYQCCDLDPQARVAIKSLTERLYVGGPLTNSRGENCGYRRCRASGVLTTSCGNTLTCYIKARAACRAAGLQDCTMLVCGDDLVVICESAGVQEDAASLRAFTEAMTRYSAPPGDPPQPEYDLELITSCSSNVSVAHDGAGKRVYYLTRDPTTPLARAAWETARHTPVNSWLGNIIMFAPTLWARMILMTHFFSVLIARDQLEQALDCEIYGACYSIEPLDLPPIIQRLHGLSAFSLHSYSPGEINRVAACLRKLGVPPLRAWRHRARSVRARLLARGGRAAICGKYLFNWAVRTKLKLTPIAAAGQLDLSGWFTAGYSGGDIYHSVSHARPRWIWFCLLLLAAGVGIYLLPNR

| Molecule | IC50 [nM] |
| --- | --- |
| O=C(O)c1ccc2c(c1)nc(-c1ccc(OCc3cc(C(=O)N4CCC(O)CC4)ccc3-c3ccc(Cl)cc3)cc1F)n2C1CCCCC1 | < 10000 |
| O=C(O)C(=O)CC(=O)c1ccccc1 | 5700 |
| CC(C)CCn1c(=O)c(C2=NS(=O)(=O)c3ccccc3N2)c(O)c2ccccc21 | 800 |
| O=C(NCc1ccccc1Cl)Nc1ccsc1-c1nc(O)c(O)c(C(=O)O)n1 | 100 |
| N#Cc1c(Cl)cccc1-c1cccc(C(=O)CC(=O)C(=O)O)c1 | 110 |
| COc1ccc(CCNC(=O)c2ccc3c(c2)nc(-c2ccccn2)n3C2CCCCC2)cc1OC | 12000 |
| O=C(N[C@@H](Cc1c[nH]c2ccccc12)C(=O)O)c1ccc2c(c1)nc(-c1ccoc1)n2C1CCCCC1 | < 1000 |
| O=C(O)c1ccc2c(c1)nc(-c1ccccn1)n2C1CCCCC1 | 4300 |
| N#Cc1ccc(Br)cc1-c1cccc(C(=O)CC(=O)C(=O)O)c1 | 100 |
| N#Cc1ccc(Br)cc1Oc1ccccc1C(=O)CC(=O)C(=O)O | 350 |
| N#Cc1c(Cl)cc(Cl)cc1-c1cccc(C(=O)CC(=O)C(=O)O)c1 | 45 |

target: T1, NS3; test: Inhibitory concentration against hepatitis C virus helicase; parameters: species or system Hepacivirus hominis; settings: not given

| Molecule | IC50 [nM] |
| --- | --- |
| O=C1NNC(=O)c2c(ncn2[C@H]2O[C@@H](COP(=O)(O)OP(=O)(O)OP(=O)(O)O)[C@H](O)[C@@H]2O)N1 | 1500 |
| NC(=O)c1ncn([C@@H]2O[C@H](COP(=O)(O)OP(=O)(O)O)[C@@H](O)[C@H]2O)n1 | 250000 |
| Nc1nc(=O)c2c(ncn2COCCOCc2ccccc2)c(=O)[nH]1 | 5500 |
| Brc1c(Br)c(Br)c2[nH]nnc2c1Br [TETRABROMOBENZOTRIAZOLE] | 20000 |
| COc1cccc2c1C(=O)c1c(O)c3c(c(O)c1C2=O)C[C@@](O)(C(=O)CO)C[C@@H]3O[C@H]1C[C@H](N)[C@@H](O)[C@H](C)O1 [EPIRUBICIN] | 750 |
| O=C(CCCCC(=O)Nc1ccc(-c2nc3ccccc3[nH]2)cc1)Nc1ccc(-c2nc3ccccc3[nH]2)cc1 | 700 |
| N=c1nc(N)c2ncn([C@H]3O[C@@H](COP(=O)(O)OP(=O)(O)OP(=O)(O)O)[C@H](O)[C@@H]3O)c2c(N)n1 | 550 |
| OC[C@H]1O[C@@H](n2nnc3cc(Cl)c(Cl)cc32)[C@H](O)[C@@H]1O | 1500 |
| COC(=O)[C@@H]1c2cc3c(c(O)c2[C@@H](O[C@@H]2O[C@@H](C)[C@H](OC)[C@@](C)(OC)[C@H]2OC)C[C@]1(C)O)C(=O)c1c(O)cc2c(c1C3=O)O[C@@H]1O[C@@]2(C)[C@H](O)[C@@H](N(C)C)[C@@H]1O [NOGALAMYCIN] | 100 |
| NC(=O)c1ncn([C@@H]2O[C@H](CO[P@@](=O)(O)O[P@](=O)(O)OP(=O)(O)O)[C@@H](O)[C@H]2O)n1 [RTP] | 180000 |
| CC(=O)O[C@H]1C(=O)[C@@]2(C)[C@H]([C@H](OC(=O)c3ccccc3)[C@]3(O)C[C@H](OC(=O)[C@H](O)[C@@H](NC(=O)c4ccccc4)c4ccccc4)C(C)=C1C3(C)C)[C@]1(OC(C)=O)CO[C@@H]1C[C@@H]2O [PACLITAXEL] | > 1000 |
| Nc1nc(=O)c2c(ncn2C2O[C@H](CO)C(O)C2O)c(=O)[nH]1 (single isomer, unassigned) | 12000 |
| c1cc(CN2CCC(C3=NC4CCCCC4N3)CC2)ccc1CN1CCC(C2=NC3CCCCC3N2)CC1 (stereo unspecified) | 7000 |
